From patent US20250099421A1 (priority 2023, published 2025)

Key:
[1] = system: rat monosodium iodoacetate model of knee osteoarthritis; conditions: in vivo
[2] = cited from earlier work

| Compound | weight bearing asymmetry at acute time points on Day 14 versus vehicle [1] | half-life in-vivo [2] |
| --- | --- | --- |
| C=C(C)[C@]12C[C@@H](C)[C@@]34O[C@](Cc5ccccc5)(O[C@@H]1[C@@H]3C=C(COC(=O)Cc1ccc(O)c(OC)c1)C[C@]1(O)C(=O)C(C)=C[C@@H]41)O2 [RTX, resiniferatoxin] | increased weight bearing asymmetry |  |
| COc1cc(CNC(=O)CCCC/C=C/C(C)C)ccc1O [CAP, capsaicin] | increased weight bearing asymmetry |  |
| hyaluronic acid [HA] |  | hours-days |
